# “Also recorded” adds a separate entry of the source. Where a name gives a salt, the structure may show the parent alone. Read-outs that look alike come from different tables or passages of the source.
# How the values were obtained:
# [1] = Perfused brain (PB) kinetics of phenolic metabolites after oral capsule; format: in vivo, Sprague–Dawley rats; design: AUC0-t PB: concentration or dose not given beside the values; conditions: for Tmax: male, Sprague-Dawley, rat, 22 mg extract blend per capsule, one capsule per animal; for PB versus NPB comparison: perfused versus nonperfused brain
# Source text: (§1) Statistical analyses were applied depending on the experimental context.
# [2] = Plasma pharmacokinetics of phenolic metabolites after oral capsule of (poly)phenol-rich Mediterranean extract mixture; conditions: for AUC0-t plasma / MRT0-t plasma / T1/2 plasma / Tmax plasma: oral capsule, 0-24 h, n = 6 per time point
# Procedure: Adult male Sprague–Dawley rats weighing 250–300 g were purchased from the Animal Experimentation Service of the University of Murcia (Murcia, Spain). […] Animals were maintained in a temperature-controlled environment with a 12 h light-dark cycle. […] Based on the experimental design shown in Figure 1, one capsule was administered by gavage to each fasting animal. A total of 40 animals were used in the study. Thirty animals received a capsule containing a mixture of different Mediterranean food extracts, while ten animals received a capsule with microcrystalline cellulose and served as the control group. At each time point (1, 3, 6, 8, and 24 h postadministration), six animals from the extract group were sacrificed, three with transcardial perfusion using saline (PB) and three without perfusion (NPB), to assess the distribution of extract-derived metabolites in plasma and brain. To minimize animal use in accordance with the 3Rs principle, two control animals were sacrificed at each time point (one PB and one NPB). […] All animals were fasted overnight prior to gavage and euthanized with carbon dioxide.
# Blood samples collected by cardiac puncture in sodium heparin tubes at each time point after sacrifice were immediately centrifuged at 14,000 × g for 15 min at 4 °C, and the plasma was stored at −80 °C until their analysis. Plasma samples were extracted with ACN:formic acid (98:2, v/v), centrifuged and evaporated in a speed vacuum concentrator (Savant SPD14 0DDA). The evaporated samples were resuspended in 100 μL MeOH and filtered through 0.22 μm regenerated cellulose filters (Minisart Sartorius, Madrid, Spain).
# We performed a targeted metabolomic analysis using an ultrahigh-performance liquid chromatographic system (UPLC) coupled to a quadrupole-time-of-flight (QTOF) mass spectrometer. The phenolic compounds were separated using an Agilent Poroshell 120 column (100 mm × 3 mm, 2.7 μm) and a 5 μL injection volume. The mobile phases used were 0.1% formic acid in water (A) and 0.1% formic acid in ACN (B), and the gradient was: 0–3 min, 5–15% B; 3–11 min, 15–30% B; 11–14 min, 30–50% B, 14–16 min, 50–90% B. Finally, the B content was decreased to the initial conditions (5%) in 1 min, and the column re-equilibrated for 4 min. The flow rate was set constant at 0.4 mL/min. The spectra were acquired in the m/z range from 100 to 1100, in negative polarity mode and an acquisition rate of 1.5 spectra per second.
# [3] = Targeted metabolomics (UPLC-ESI-QTOF) identification of metabolites in plasma, PB and NPB; conditions: P plasma, PB perfused brain, NPB nonperfused brain, 1-24 h after oral capsule
# Procedure: Adult male Sprague–Dawley rats weighing 250–300 g were purchased from the Animal Experimentation Service of the University of Murcia (Murcia, Spain). […] Based on the experimental design shown in Figure 1, one capsule was administered by gavage to each fasting animal. A total of 40 animals were used in the study. Thirty animals received a capsule containing a mixture of different Mediterranean food extracts, while ten animals received a capsule with microcrystalline cellulose and served as the control group. […] To minimize animal use in accordance with the 3Rs principle, two control animals were sacrificed at each time point (one PB and one NPB). These controls served to identify potential endogenous compounds or background signals not related to the extract administration. All animals were fasted overnight prior to gavage and euthanized with carbon dioxide.
# Plasma samples were extracted with ACN:formic acid (98:2, v/v), centrifuged and evaporated in a speed vacuum concentrator (Savant SPD14 0DDA). The evaporated samples were resuspended in 100 μL MeOH and filtered through 0.22 μm regenerated cellulose filters (Minisart Sartorius, Madrid, Spain). Next, half of the animals at each time point were perfused with ice-cold phosphate-buffered saline, and the blood-free brain was dissected out immediately and stored at – 80 °C until analysis, as previously reported.[37],[48]
# Approximately 400 mg of brain tissue (perfused or nonperfused) was weighed and extensively washed with cold PBS to avoid external blood contamination. After weighting, the samples were placed in 2 mL screw cap tubes. […] The evaporated samples were resuspended in 100 μL MeOH and filtered through 0.22 μm regenerated cellulose filters.
# We performed a targeted metabolomic analysis using an ultrahigh-performance liquid chromatographic system (UPLC) coupled to a quadrupole-time-of-flight (QTOF) mass spectrometer. The phenolic compounds were separated using an Agilent Poroshell 120 column (100 mm × 3 mm, 2.7 μm) and a 5 μL injection volume. […] The flow rate was set constant at 0.4 mL/min. The spectra were acquired in the m/z range from 100 to 1100, in negative polarity mode and an acquisition rate of 1.5 spectra per second. Quantitative data were processed using the Mass HunterQualitative Analysis software (version B.08.00, Agilent). A target screening strategy was applied for the qualitative analysis of possible metabolites derived from the consumption of the Mediterranean blend. […] These compounds encompass derived metabolites conjugated (glucuronides, sulfates, and sulfoglucuronides, among others). The exact mass of the proposed compound was extracted using an extraction window of 0.01 m/z. Metabolite quantification was performed by integrating the peak areas of their extracted ion chromatograms (EICs). Compounds with available standards were quantified using calibration curves derived from the respective standards, while other metabolites were semiquantified based on their peak area values.
# [4] = Nonperfused brain (NPB) kinetics of phenolic metabolites after oral capsule; format: in vivo, Sprague–Dawley rats; design: AUC0-t NPB: concentration or dose not given beside the values; conditions: nonperfused brain, oral capsule, 0-24 h, n = 3 per time point
# Source text: as §1
# [5] = perfused brain, oral capsule, 0-24 h, n = 3 per time point
# [6] = male, Sprague-Dawley, rat, po, 22 mg extract blend per capsule, one capsule per animal
# [7] = male, Sprague-Dawley, rat, 22 mg extract blend per capsule, one capsule per animal
# [8] = read-out: Cmax plasma, oral capsule, 0-24 h, n = 6 per time point
Compound,PB versus NPB comparison [1],occurrence [3],AUC0-t plasma [2],MRT0-t plasma [2],T1/2 plasma [2],Tmax plasma [2],"Cmax [2, 8]",further results
"O=C(O)c1ccc(O)cc1O [2,4-dihydroxybenzoic acid]",significantly lower AUC values in PB compared to NPB,"consistently detected in plasma and brain at all time points; also recorded: PB, NPB, P",–,–,–,–,–,"Tmax [1, 5]: 10 ± 12 h; AUC0-t PB [1, 5]: 44 ± 17 pmol·h/g; Cmax PB [1, 5]: 4.3 ± 2.8 pmol/g tissue; concentration in plasma (approximate) [2]: around 500 nM; AUC(0-t) [2, 6]: 6.42 ± 1.92 µM·h; Cmax [2, 6]: 534 ± 211 nM; MRT last [2, 6]: 22 ± 11 h; Tmax [2, 6]: 12 ± 11 h; half-life [2, 6]: 14 ± 6 h; Tmax [4, 7]: 14 ± 15 h; MRT last ([4]; male, Sprague-Dawley, rat, 22 mg extract blend per capsule, one capsule per animal, read-out: MRT0-t NPB): 7.9 ± 1.1 h; half-life ([4]; male, Sprague-Dawley, rat, 22 mg extract blend per capsule, one capsule per animal, read-out: T1/2 NPB (converted)): 5.4 ± 3.6 h; AUC0-t NPB [4]: 92 ± 31 pmol·h/g; Cmax NPB [4]: 10 ± 1.2 pmol/g tissue"
O=C(O)CCc1ccccc1O [3-(2-hydroxyphenyl) propionic acid],–,"PB, NPB, P",–,–,–,–,–,"Tmax [1, 5]: 9 ± 1.4 h; AUC0-t PB [1, 5]: 1.8 ± 2.2 pmol·h/g; Cmax PB [1, 5]: 0.6 ± 0.5 pmol/g tissue; AUC(0-t) [2, 6]: 0.213 ± 0.053 µM·h; Cmax [2, 6]: 20 ± 11 nM; MRT last [2, 6]: 8.89 h; Tmax [2, 6]: 10 h; half-life [2, 6]: 8.26 h; occurrence ([3]; listed as 3-(2-hydroxyphenyl)propionic acid): consistently detected in plasma and brain at all time points; Tmax [4, 7]: 3.3 ± 4 h; AUC0-t NPB [4]: 1.1 ± 0.8 pmol·h/g; Cmax NPB [4]: 0.3 ± 0.04 pmol/g tissue"
COc1ccc(CCC(=O)O)cc1O [3-(3′-hydroxy-4′-methoxyphenyl)propionic acid)],higher concentrations in PB,"PB, NPB, P",–,–,–,–,–,–
"O=C1CCC(Cc2ccc(O)c(OS(=O)(=O)O)c2)O1 (centres unmarked) [5-(3,4-dihydroxyphenylvalerolactone) sulfate]",–,undetectable in both PB and NPB,0.113 ± 0.078 µM·h,31 ± 44 h,19 ± 29 h,4.5 ± 1.7 h,12.1 ± 5 nM,"occurrence ([3]; listed as 5-(3,4-dihydroxyphenyl)valerolactone sulfate): exclusively detected in plasma"
O=C(O)CCc1ccc(O)c(OS(=O)(=O)O)c1 [dihydrocaffeic acid 3-O-sulfate],–,exclusively detected in plasma,0.077 ± 0.031 µM·h,9.0 ± 2.5 h,6.0 ± 1.6 h,4.5 ± 1.7 h,9.6 ± 4.5 nM,–
COc1cc(/C=C/C(=O)O)ccc1OS(=O)(=O)O [ferulic acid 4-O-sulfate],significantly lower AUC values in PB compared to NPB,"PB, NPB, P",1.114 ± 0.459 µM·h,14 ± 5.1 h,12 ± 6.3 h,4.2 ± 1.6 h,129 ± 107 nM,"AUC0-t PB [1, 5]: 3.0 ± 0.5 pmol·h/g; Cmax PB [1, 5]: 0.2 ± 0.1 pmol/g tissue; Tmax PB [1, 5]: 12 ± 11 h; plasma concentration relative to p-coumaric acid 4-O-sulfate [2]: approximately 3 fold; AUC0-t NPB [4]: 4.8 ± 2.6 pmol·h/g; Cmax NPB [4]: 0.3 ± 0.2 pmol/g tissue; Tmax NPB [4]: 1.0 ± 0.0 h"
COc1ccc(C2CC(=O)c3c(O)cc(O)cc3O2)cc1O[C@@H]1O[C@H](C(=O)O)[C@@H](O)[C@H](O)[C@H]1O (some centres unmarked) [hesperetin 3′-O-glucuronide],–,no detectable levels in PB or NPB,0.011 ± 0.0013 µM·h,23.48 h,14.80 h,5.7 ± 2.7 h,2.7 ± 0.9 nM,–
COc1ccc([C@@H]2CC(=O)c3c(O)cc(O[C@@H]4O[C@H](C(=O)O)[C@@H](O)[C@H](O)[C@H]4O)cc3O2)cc1O [hesperetin 7-O-glucuronide],–,no detectable levels in PB or NPB,0.036 ± 0.012 µM·h,11 ± 5.8 h,7.4 ± 3.4 h,4.2 ± 2.8 h,4 ± 0.7 nM,–
COc1cc(CCO)ccc1OS(=O)(=O)O [homovanillic alcohol sulfate],higher concentrations in PB,"PB, NPB, P",–,–,–,–,–,–
hydroxyphenyl propionic acid sulfate [hydroxyphenyl propionic acid sulfate peak-1],–,"PB, NPB, P",–,–,–,–,–,–
hydroxyphenylacetic acid sulfate,–,"PB, NPB, P",–,–,–,–,–,–

# From PMC12063173, “Metabolic Profiling of a Mediterranean-Inspired (Poly)phenol-Rich Mixture in the Brain: Perfusion Effect and In Vitro Blood–Brain Barrier Transport Validation” (Journal of Agricultural and Food Chemistry, 2025)
